Results reported in patent publication US20180338993A1, “TREATMENT OF HEPATITIS DELTA VIRUS INFECTION” (Eiger BioPharmaceuticals, Inc., priority 2014, published 2018).
≈ marks a conversion by molar mass, not a printed value. Read-outs that look alike come from different tables or passages of the source.

Key:
[1] = Solubility in water, buffers and physiological fluids; format: physicochemical
Source text: Tipifarnib is a methyl-quinolinone with a molecular formula of C27H22Cl2N4O and molecular weight of 489.40. […] These are safe and well tested excipients that are commonly used in marketed products. The film coatings of the tablets contain hypromellose, titanium dioxide, lactose monohydrate, polyethylene glycol, and triacetin. “Tipifarnib derivative” as used herein refers not only to R208176 but also to molecules closely structurally related to either tipifarnib or R208176 with similar pharmacologic activity against HDV; this term includes, for example and without limitation, compounds described in U.S. Pat. Nos. 6,169,096; 6,365,600; 6,420,387; 6,734,194; 6,743,805; 6,838,467; and 7,253,183.
R208176 is an off-white, non-hygroscopic and crystalline powder. It has a molecular weight of 501.4 Daltons and a molecular formula of C25H18Cl2N8.

[2] = cited from earlier work

Compound | solubility ([1]; 0.1 N HCl, simulated gastric fluid, read-out: solubility in 0.1 N HCl) | solubility in 0.1 N NaOH ([1]; 0.1 N NaOH) | solubility ([1]; aqueous buffer, citrate-HCl buffer pH 4, read-out: solubility in citrate-HCl buffer pH 4) | solubility in borate-HCl buffer pH 8 ([1]; borate-HCl buffer pH 8) | solubility in borate-KCl—NaOH buffer pH 10 ([1]; borate-KCl—NaOH buffer pH 10) | solubility in citrate-HCl buffer pH 2 ([1]; citrate-HCl buffer pH 2) | solubility in citrate-NaOH buffer pH 6 ([1]; citrate-NaOH buffer pH 6) | solubility ([1]; gastric fluid, simulated gastric fluid, read-out: solubility in gastric fluid) | solubility in intestinal fluid ([1]; intestinal fluid) | solubility in water [1] | DLTs at 200 mg BID ([2]; 200 mg BID dose, dosed for 200 days) | patients stopping treatment due to adverse events (grade 3 or 4) ([2]; 13 cancer patients) | Dose limiting toxicities ([2]; cancer patients, continuous oral BID dosing) | MTD ([2]; cancer patients, orally BID, continuous dosing for up to 56 days) | Most common AEs ([2]; cancer patients) | solubility in 0.1 N HCl ([1]; 0.1 N HCl) | solubility in citrate-HCl buffer ([1]; citrate-HCl buffer) | solubility in citrate-NaOH buffer ([1]; citrate-NaOH buffer) | solubility in phosphate buffers ([1]; phosphate buffers)
Cn1cncc1[C@@](N)(c1ccc(Cl)cc1)c1ccc2c(c1)c(-c1cccc(Cl)c1)nc1nnnn12 [R208176] | 10000 to 33000 µg/mL (≈ 19.9 to 65.8 mM) | practically insoluble | 100 to 1000 µg/mL (≈ 0.199 to 1.99 mM) | practically insoluble | practically insoluble | slightly soluble | practically insoluble | 10000 to 33000 µg/mL (≈ 19.9 to 65.8 mM) | practically insoluble | practically insoluble | – | – | – | – | – | – | – | – | –
Cn1cncc1[C@@](N)(c1ccc(Cl)cc1)c1ccc2c(c1)c(-c1cccc(Cl)c1)cc(=O)n2C [tipifarnib, (R)-6-[amino(4-chlorophenyl)(1-methyl-1H-imidazol-5-yl)methyl]-4-(3-chlorophenyl)-1-methyl-2(1H)-quinolinone] | – | – | – | – | – | – | – | – | – | insoluble | No DLTs were observed | 4 of 13 | granulocytopenia and neuropathy | 300 mg | gastrointestinal-related | moderately soluble | slightly soluble | insoluble | insoluble
